From publication PMC10392092, “Structural and molecular basis for urea recognition by Prochlorococcus” (The Journal of Biological Chemistry, 2023)

How the values were obtained:
Assay in all cases: isothermal titration calorimetry
Type in all cases: binding
[1] = target: T1, UrtA (Prochlorococcus marinus, UniProt Q7V3V9, S274A)
T1 construct: 24-residue predicted signal peptide removed from 431-residue precursor (432 elsewhere in the source); C-terminal 6xHis tag, pET-22b, E. coli BL21(DE3); about 50 kDa; monomer; structure residues 38-431 described
T1 sequence (Q7V3V9 entry or part of it S274A): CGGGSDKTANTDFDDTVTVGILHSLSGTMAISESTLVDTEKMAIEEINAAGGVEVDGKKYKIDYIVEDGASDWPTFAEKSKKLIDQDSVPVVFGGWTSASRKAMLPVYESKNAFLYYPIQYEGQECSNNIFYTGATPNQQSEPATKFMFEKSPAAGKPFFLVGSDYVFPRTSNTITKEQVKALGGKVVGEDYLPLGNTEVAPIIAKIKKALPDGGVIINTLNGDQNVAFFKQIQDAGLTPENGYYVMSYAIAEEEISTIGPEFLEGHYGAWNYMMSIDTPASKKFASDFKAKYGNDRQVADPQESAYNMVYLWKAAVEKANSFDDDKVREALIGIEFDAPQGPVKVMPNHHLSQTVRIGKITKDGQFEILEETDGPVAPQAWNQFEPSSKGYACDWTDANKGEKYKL

[2] = target: T2, UrtA (Prochlorococcus marinus, UniProt Q7V3V9, W120A); conditions: pH 8.0, 20 mM Tris-HCl, 200 mM NaCl, 25 °C
T2 construct: 24-residue predicted signal peptide removed from 431-residue precursor (432 elsewhere in the source); C-terminal 6xHis tag, pET-22b, E. coli BL21(DE3); about 50 kDa; monomer; structure residues 38-431 described
T2 sequence (Q7V3V9 entry or part of it W120A): as the sequence (Q7V3V9 entry or part of it S274A) above, with W96A, A250S counted along it

[3] = target: T3, UrtA (Prochlorococcus marinus, UniProt Q7V3V9)
T3 construct: 24-residue predicted signal peptide removed from 431-residue precursor (432 elsewhere in the source); C-terminal 6xHis tag, pET-22b, E. coli BL21(DE3); about 50 kDa; monomer; structure residues 38-431 described
T3 sequence (Q7V3V9 25-431): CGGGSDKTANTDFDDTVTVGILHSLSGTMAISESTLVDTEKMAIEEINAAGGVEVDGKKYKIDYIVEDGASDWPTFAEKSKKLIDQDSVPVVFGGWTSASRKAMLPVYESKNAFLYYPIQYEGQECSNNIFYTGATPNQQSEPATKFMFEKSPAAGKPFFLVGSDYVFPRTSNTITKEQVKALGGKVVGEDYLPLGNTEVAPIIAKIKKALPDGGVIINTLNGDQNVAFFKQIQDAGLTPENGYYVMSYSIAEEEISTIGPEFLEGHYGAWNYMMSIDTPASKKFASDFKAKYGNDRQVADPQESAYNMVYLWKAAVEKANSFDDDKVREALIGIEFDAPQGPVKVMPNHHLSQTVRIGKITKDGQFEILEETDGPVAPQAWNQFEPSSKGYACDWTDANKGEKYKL

[4] = target: T4, UrtA (Prochlorococcus marinus, UniProt Q7V3V9, Y141A)
T4 construct: 24-residue predicted signal peptide removed from 431-residue precursor (432 elsewhere in the source); C-terminal 6xHis tag, pET-22b, E. coli BL21(DE3); about 50 kDa; monomer; structure residues 38-431 described
T4 sequence (Q7V3V9 entry or part of it Y141A): as the sequence (Q7V3V9 entry or part of it S274A) above, with Y117A, A250S counted along it

[5] = target: T5, UrtA (Prochlorococcus marinus, UniProt Q7V3V9, F192A)
T5 construct: 24-residue predicted signal peptide removed from 431-residue precursor (432 elsewhere in the source); C-terminal 6xHis tag, pET-22b, E. coli BL21(DE3); about 50 kDa; monomer; structure residues 38-431 described
T5 sequence (Q7V3V9 entry or part of it F192A): as the sequence (Q7V3V9 entry or part of it S274A) above, with F168A, A250S counted along it

[6] = target: T6, UrtA (Prochlorococcus marinus, UniProt Q7V3V9, E146A)
T6 construct: 24-residue predicted signal peptide removed from 431-residue precursor (432 elsewhere in the source); C-terminal 6xHis tag, pET-22b, E. coli BL21(DE3); about 50 kDa; monomer; structure residues 38-431 described
T6 sequence (Q7V3V9 entry or part of it E146A): as the sequence (Q7V3V9 entry or part of it S274A) above, with E122A, A250S counted along it

Kd [1]: 1280 ± 639 nM
Kd [3]: 141 ± 11.2 nM
Kd [4]: 7950 ± 1220 nM
Kd [5]: 114 ± 26.7 nM
Kd [6]: 3050 ± 609 nM
SMILES: NC(N)=O [urea]
Kd [2]: the mutant W120A was unable to bind to urea
